# Reference: ChEMBL document CHEMBL6114969, “Ultra-short lipopeptides containing d-amino acid exhibiting excellent stability and antibacterial activity against gram-positive bacteria” (Eur J Med Chem, 2025)
# Active and inactive are the calls of the source. The rule behind the calls is not given here.
# Assays:
# Staphylococcus aureus [1] = experiment: Antibacterial activity against methicillin-resistant Staphylococcus aureus ATCC 33591 infected in Balb/c mouse model of acute systemic infection assessed as reduction in bacterial count in liver at 10 mg/kg, ip measured after 5 days; type: functional, organism-based; conditions: time 5.0 day
# Staphylococcus aureus [2] = experiment: Antibacterial activity against Staphylococcus aureus ATCC 25923 incubated for 18 to 24 hrs by broth microdilution method; type: functional; conditions: time 18-24 hrs
# [3] = Hemolytic activity in mouse Red blood cells incubated for 1 hr by absorbance based analysis; type: toxicity, cell-based; conditions: erythrocyte
# Staphylococcus aureus [4] = experiment: Antibacterial activity against methicillin-resistant Staphylococcus aureus ATCC 33591 incubated for 18 to 24 hrs in presence of 2 mg/ml of trypsin by broth microdilution method; type: functional; conditions: time 18-24 hrs
# Staphylococcus aureus [5] = experiment: Antibacterial activity against methicillin-resistant Staphylococcus aureus ATCC 33591 incubated for 18 to 24 hrs in presence of 1 mg/ml of chymotrypsin by broth microdilution method; type: functional; conditions: time 18-24 hrs
# Staphylococcus aureus [6] = experiment: Antibacterial activity against methicillin-resistant Staphylococcus aureus ATCC 33591 incubated for 18 to 24 hrs in presence of 2 mg/ml of chymotrypsin by broth microdilution method; type: functional; conditions: time 18-24 hrs
# Staphylococcus aureus [7] = experiment: Antibacterial activity against methicillin-resistant Staphylococcus aureus ATCC 33591 incubated for 18 to 24 hrs in presence of 1 mg/ml of pepsin by broth microdilution method; type: functional; conditions: time 18-24 hrs
# Staphylococcus aureus [8] = experiment: Bactericidal activity against methicillin-resistant Staphylococcus aureus ATCC 33591 at 2 times MIC incubated for 6 hrs by time-kill assay relative to control; type: functional
# Staphylococcus aureus [9] = experiment: Antibacterial activity against methicillin-resistant Staphylococcus aureus ATCC 33591 assessed as bacterial growth inhibition at 0.5 to 1 times MIC incubated for 18 to 24 hrs by time-kill assay; type: functional, organism-based; conditions: time 18-24 hrs
# Staphylococcus aureus [10] = experiment: Synergistic bactericidal activity against persistent methicillin-resistant Staphylococcus aureus ATCC 33591 incubated for 18 to 24 hrs in presence of vancomycin by time-kill assay; type: functional, organism-based; conditions: time 18-24 hrs
# Staphylococcus aureus [11] = experiment: Inhibition of ciprofloxacin-induced drug resistance in Staphylococcus aureus ATCC 25923 at sub-MIC measured upto 15 passages; type: functional, organism-based
# Staphylococcus aureus [12] = experiment: Inhibition of imipenem-induced drug resistance in Staphylococcus aureus ATCC 25923 at sub-MIC measured upto 15 passages; type: functional, organism-based
# Staphylococcus aureus [13] = experiment: Antibacterial activity against ciprofloxacin-resistant Staphylococcus aureus ATCC 25923 incubated for 18 to 24 hrs; type: functional; conditions: time 18-24 hrs
# Staphylococcus aureus [14] = experiment: Antibacterial activity against ciprofloxacin-resistant methicillin-resistant Staphylococcus aureus ATCC 33591 incubated for 18 to 24 hrs; type: functional; conditions: time 18-24 hrs
# Staphylococcus aureus [15] = experiment: Antibacterial activity against gentamicin-resistant methicillin-resistant Staphylococcus aureus ATCC 33591 incubated for 18 to 24 hrs; type: functional; conditions: time 18-24 hrs
# Staphylococcus aureus [16] = experiment: Bactericidal activity against methicillin-resistant Staphylococcus aureus ATCC 33591 at 4 times MIC incubated for 24 hrs in presence of 4 ug/ml LPS by absorbance based assay; type: functional, organism-based
# Staphylococcus aureus [17] = experiment: Bactericidal activity against methicillin-resistant Staphylococcus aureus ATCC 33591 at 4 times MIC incubated for 24 hrs in presence of 8 ug/ml LTA by absorbance based assay; type: functional, organism-based
# Staphylococcus aureus [18] = experiment: Bactericidal activity against methicillin-resistant Staphylococcus aureus ATCC 33591 at 4 times MIC incubated for 24 hrs in presence of >64 ug/ml phosphatidylcholine by absorbance based assay; type: functional, organism-based
# Staphylococcus aureus [19] = experiment: Induction of cytoplasmic membrane depolarization in methicillin-resistant Staphylococcus aureus ATCC 33591 incubated upto 20 mins by DiSC3-5 dye based analysis; type: functional, organism-based
# Staphylococcus aureus [20] = experiment: Induction of morphological changes in methicillin-resistant Staphylococcus aureus ATCC 33591 assessed as irregular atrophy at 2 times MIC incubated for 2 hrs by SEM analysis; type: functional, organism-based
# Staphylococcus aureus [21] = experiment: Destruction of cell membrane in methicillin-resistant Staphylococcus aureus ATCC 33591 at 2 to 8 times MIC by absorbance based assay; type: functional, organism-based; conditions: time <= 360.0 min
# [22] = Toxicity in Balb/c mouse assessed as survival rate at 20 mg/kg, ip measured after 7 days; type: organism-based; conditions: in vivo, time 7 day
# [23] = Toxicity in Balb/c mouse assessed as survival rate at 40 mg/kg, ip measured after 7 days; type: organism-based; conditions: in vivo, time 7 day
# [24] = Toxicity in Balb/c mouse assessed as body weight change at 20 to 80 mg/kg, ip measured after 7 days; type: organism-based; conditions: in vivo, 168 h, dose 20-80 mg/kg, time 7 day
# [25] = Toxicity in Balb/c mouse assessed as change in spleen co-efficient at 20 to 80 mg/kg, ip measured after 7 days; type: organism-based; conditions: in vivo, 168 h, dose 20-80 mg/kg, time 7 day
# [26] = Toxicity in Balb/c mouse assessed as change in key organs appearance at 20 to 40 mg/kg, ip measured after 7 days; type: organism-based; conditions: in vivo, 168 h, dose 20-40 mg/kg, time 7 day
# [27] = Toxicity in Balb/c mouse assessed as kidney atrophy at 80 mg/kg, ip measured after 7 days; type: organism-based; conditions: in vivo, 168 h, time 7 day
# [28] = Toxicity in Balb/c mouse assessed as spleen pigmentation at 80 mg/kg, ip measured after 7 days; type: organism-based; conditions: in vivo, 168 h, time 7 day
# Staphylococcus aureus [29] = experiment: Antibacterial activity against methicillin-resistant Staphylococcus aureus ATCC 33591 infected in Balb/c mouse model of acute systemic infection assessed as reduction in bacterial count in spleen at 10 mg/kg, ip measured after 5 days; type: functional, organism-based; conditions: time 5.0 day
# Staphylococcus aureus [30] = experiment: Antibacterial activity against methicillin-resistant Staphylococcus aureus ATCC 33591 infected in Balb/c mouse model of acute systemic infection assessed as reduction in bleeding in liver at 10 mg/kg, ip measured after 5 days by H and E staining based analysis; type: functional, organism-based; conditions: time 5.0 day
# Staphylococcus aureus [31] = experiment: Antibacterial activity against methicillin-resistant Staphylococcus aureus ATCC 33591 infected in Balb/c mouse model of acute systemic infection assessed as tissue damage repair at 10 mg/kg, ip measured after 5 days in presence of polymyxin B by H and E staining based analysis; type: functional, organism-based; conditions: time 5.0 day
# Staphylococcus aureus [32] = experiment: (§1) Antibacterial activity against methicillin-resistant Staphylococcus aureus ATCC 33591 infected in Balb/c mouse model of pneumonia infection assessed as reduction in bacterial load in lung at 10 mg/kg, ip administered thrice at 4, 8 and 12 hrs post-infection measured after 24 hrs post-infection in presence of polymyxin B; type: functional, organism-based; conditions: time 20.0 hrs
# Staphylococcus aureus [33] = experiment: as §1, with “bleeding” for “bacterial load”, “by H and E staining based analysis” for “in presence of polymyxin B”; type: functional, organism-based; conditions: time 20.0 hrs
# Staphylococcus aureus [34] = experiment: (§2) Antibacterial activity against methicillin-resistant Staphylococcus aureus ATCC 33591 infected in Balb/c mouse model of skin wound infection assessed as crusted back wound at 10 mg/kg, ip administered thrice at 1, 24 and 48 hrs post-infection measured after 9 days relative to control; type: functional; conditions: time 9 day
# Staphylococcus aureus [35] = experiment: as §2, with “days in presence of polymyxin B” for “days”; type: functional; conditions: time 9 day
# Staphylococcus aureus [36] = experiment: (§3) Antibacterial activity against methicillin-resistant Staphylococcus aureus ATCC 33591 infected in Balb/c mouse model of skin wound infection assessed as wound heal at 10 mg/kg, ip administered thrice at 1, 24 and 48 hrs post-infection measured after 14 days relative to control; type: functional; conditions: time 14 day
# Staphylococcus aureus [37] = experiment: as §3, with “reduction in TNF-alpha activity in skin” for “wound heal”, “in presence of polymyxin B by IHC analysis” for “relative to control”; type: functional, organism-based; conditions: time 14.0 day
smiles,measurement,setting,value
CCCCCCCCCCCC(=O)N[C@H](CCCNC(=N)N)C(=O)N[C@H](CCCNC(=N)N)C(=O)N[C@H](Cc1c[nH]c2ccccc12)C(=O)O,Activity,Staphylococcus aureus [1],Active
same,MIC,Staphylococcus aureus [2],4 µM
same,HC10,[3],64 µM
same,MIC,Staphylococcus aureus [4],4 µM
same,MIC,Staphylococcus aureus [5],4 µM
same,MIC,Staphylococcus aureus [6],4 µM
same,MIC,Staphylococcus aureus [7],8 µM
same,Activity,Staphylococcus aureus [8],100%
same,inhibition,Staphylococcus aureus [9],Active
same,Activity,Staphylococcus aureus [10],Dose-dependent-effect
same,inhibition,Staphylococcus aureus [11],Active
same,inhibition,Staphylococcus aureus [12],Active
same,MIC,Staphylococcus aureus [13],8 µM
same,MIC,Staphylococcus aureus [14],32 µM
same,MIC,Staphylococcus aureus [15],8 µM
same,Activity,Staphylococcus aureus [16],inactive
same,Activity,Staphylococcus aureus [17],inactive
same,Activity,Staphylococcus aureus [18],inactive
same,Activity,Staphylococcus aureus [19],Dose-dependent-effect; Compound Activity Was Slightly Weaker Than Triton X-100
same,Activity,Staphylococcus aureus [20],Active
same,Activity,Staphylococcus aureus [21],Time-dependent-effect
same,survival at 168 h,[22],62.5%
same,survival at 168 h,[23],0%
same,Activity,[24],Non-toxic
same,Activity,[25],Non-toxic
same,Activity,[26],Non-toxic
same,Activity,[27],Toxic
same,Activity,[28],Toxic
same,Activity,Staphylococcus aureus [29],Active
same,Activity,Staphylococcus aureus [30],Active
same,Activity,Staphylococcus aureus [31],Active; Compound In Combination Exerted Better Activity Than Polymyxin B Treatment Alone
same,Activity,Staphylococcus aureus [32],Active
same,Activity,Staphylococcus aureus [33],Active
same,Activity,Staphylococcus aureus [34],100%
same,Activity,Staphylococcus aureus [35],100%
same,Activity,Staphylococcus aureus [36],100%
same,Activity,Staphylococcus aureus [37],Active
